From PMC12389355, “Physiologically Based Pharmacokinetic Modeling to Assess Perpetrator and Victim Cytochrome P450 2C Induction Risk” (Pharmaceutics, 2025)
Read-outs that look alike come from different tables or passages of the source.

Assays:
CYP2C19 [1] = assay: CYP2C19 enzyme activity induction in HTC model (omeprazole 5-hydroxylation)
CYP3A4 [2] = assay: CYP3A4 mRNA induction in human hepatocyte triculture (HTC) model
CYP2C8 [3] = assay: CYP2C8 mRNA induction in HTC model
CYP2B6 [4] = assay: in vitro; conditions: human
CYP3A4 [5] = assay: in vitro; conditions: human
CYP2C9 [6] = assay: CYP2C9 mRNA induction in HTC model
CYP2C19 [7] = assay: CYP2C19 mRNA induction in HTC model
CYP2C9 [8] = assay: in vitro; conditions: human
CYP3A4 [9] = assay: CYP3A4 enzyme activity induction in HTC model (midazolam 1-hydroxylation)
CYP2C9 [10] = assay: in vitro; conditions: human, probe diclofenac (4-hydroxy diclofenac formation)
CYP2C9 [11] = assay: CYP2C9 enzyme activity induction in HTC model (diclofenac 4-hydroxylation)
CYP2B6 [12] = assay: CYP2B6 mRNA induction in HTC model
[13] = cited from earlier work
CYP2C19 [14] = conditions: victim drug; References of Tables 3 and 4 ([27]-[44]); cited from earlier work
CYP3A4 [15] = conditions: victim drug; References of Tables 3 and 4 ([27]-[44]); cited from earlier work
CYP2C9 [16] = conditions: victim drug; References of Tables 3 and 4 ([27]-[44]); cited from earlier work
Other CYPs = conditions: victim drug; ref [35],[36]; cited from earlier work
CYP2C8 [17] = test system: CYP2C8; set-up: method as in References column of Tables 3 and 4 ([27]-[44]); conditions: victim drug; References of Tables 3 and 4 ([27]-[44]); cited from earlier work
[18] = victim drug after administration with rifampicin, References of Table 4 ([27]-[43]), DIDB

SMILES: O=C1Nc2ccc(Cl)cc2[C@@](C#CC2CC2)(C(F)(F)F)O1 [Efavirenz, efavirenz]
- EC50 (CYP2C19 [1]; Donor 1): 946 nM
- EC50 (CYP2C19 [1]; Donor 2): 297 nM
- EC50 (CYP2C19 [1]; Donor 3): 2480 nM
- EC50 (CYP2C8 [3]; Donor 1): 4480 nM
- EC50 (CYP2C8 [3]; Donor 2): 1970 nM
- EC50 (CYP2C8 [3]; Donor 3): 2950 nM
- EC50 (CYP2C19 [7]; Donor 1): 8300 nM
- EC50 (CYP2C19 [7]; Donor 3): 2910 nM
- EC50 at 96 h (CYP2C9 [8]): 455 nM
- EC50 at 96 h (CYP2C9 [10]): 4290 nM

SMILES: COc1ccc2[nH]c([S+]([O-])Cc3ncc(C)c(OC)c3C)nc2c1 (centres unmarked) [Omeprazole, omeprazole]
- % AUC Reduction (Clinically Observed) [13, 18]: 86.1%
- fm CYP2C19 (CYP2C19 [14]): 0.68
- fm CYP3A4 (CYP3A4 [15]): 0.32

SMILES: CC(=O)CC(c1ccccc1)c1c(O)c2ccccc2oc1=O (centres unmarked) [Warfarin, warfarin]
- fm CYP2C9 (CYP2C9 [16]): 0.64

SMILES: CCCCNC(=O)NS(=O)(=O)c1ccc(C)cc1 [Tolbutamide, tolbutamide]
- % AUC Reduction (Clinically Observed) [13, 18]: 63.5%
- fm Other CYPs (Other CYPs): 0.15

SMILES: Cc1ncc2n1-c1ccc(Cl)cc1C(c1ccccc1F)=NC2 [Midazolam, midazolam]
- % AUC Reduction (Clinically Observed) ([13]; in vivo): 94.7%

SMILES: CCOc1cc(CC(=O)N[C@@H](CC(C)C)c2ccccc2N2CCCCC2)ccc1C(=O)O [Repaglinide, repaglinide]
- % AUC Reduction (Clinically Observed) [13, 18]: 57.5%
- fm CYP2C8 (CYP2C8 [17]): 0.26
- fm CYP3A4 (CYP3A4 [15]): 0.74

SMILES: CCc1ccc(CCOc2ccc(CC3SC(=O)NC3=O)cc2)nc1 (centres unmarked) [Pioglitazone, pioglitazone]
- % AUC Reduction (Clinically Observed) [13, 18]: 56.3%
- fm CYP2C8 (CYP2C8 [17]): 0.56
- fm CYP3A4 (CYP3A4 [15]): 0.37
